What was measured:
[1] = biological target: T1, human A2A adenosine receptor (Homo sapiens, UniProt P29274); test: A2A binding affinity, Method (A): radioligand filtration binding with [3H]SCH58261; conditions: membranes of HEK293 or CHO cells expressing the human receptor
T1 construct: expressed in transfected cells; host or cells: HEK293 or CHO cells
Excerpt: (§1) Method (A) describes the procedure used to measure A2A binding affinity using radioligand binding. Method (B) describes the procedure used to measure A2A binding affinity using SPA technology. The method used to measure A2B binding affinity is also described below. The method used to determine the A2A IC50 value reported for each compound in the table is indicated next to the reported value. The A2B IC50 value measured using the A2B binding affinity assay is shown in the table next to the compound under the corresponding A2A value.
The A2A receptor affinity binding assay measured the amount of binding of a tritiated ligand with high affinity for the A2A adenosine receptor to membranes made from HEK293 or CHO cells recombinantly expressing the human A2A adenosine receptor, in the presence of varying concentrations of a compound of the invention. The data were generated using either filtration binding or a homogenous scintillation proximity assay (SPA).
Method (A): Measurement of A2A Binding Affinity Using Radioligand Binding
148 µL (5 µg/mL) membranes (Perkin Elmer, Cat. No. RBHA2aM400UA) and 2 µL compounds of the invention to be tested (test compound) were transferred to individual wells of a 96-well polypropylene assay plate and incubated for 15 to 30 min at room temperature. [^3H] SCH58261 ((7-(2-phenylethyl)-5-amino-2-(2-furyl)-pyrazolo-[4,3-e]-1,2,4-triazolo[1,5-c]pyrimidine)) was diluted in assay buffer (50 mM Tris pH 7.4, 10 mM MgCl2, 0.005% Tween20) to a concentration of 4 nM and 50 µL transferred to each well of the assay plate. To define total and non-specific binding, wells containing 1% DMSO and 1 µM ZM241385 (Tocris Bioscience, Cat. No. 1036) respectively, were also included. The assay plate was incubated at room temperature for 60 min with agitation. Using a FilterMate Harvester® (Perkin Elmer), the contents of the assay plate were filtered through a UniFilter-96® PEI coated plate (Perkin Elmer Cat. No. 6005274 or 6005277). Filtering was achieved by aspirating the contents of the assay plate for 5 sec, then washing and aspirating the contents three times with ice-cooled wash buffer (50 mM Tris-HCl pH 7.4, 150 mM NaCl) and allowing the vacuum manifold to dry the plate for 30 sec. The filter plate was incubated for at least 1 h at 55° C. and allowed to dry. The bottom of the filter plate was sealed with backing tape. 40 µL Ultima Gold™ (Perkin Elmer, Cat. No. 6013329) was added to each well of the filter plate and the top of the plate was sealed with TopSeal-A PLUS® clear plate seal (Perkin Elmer, Cat. No. 6050185). The plate was incubated for at least 20 min, and then the amount of radioactivity remaining in each well was determined using a TopCount® (Perkin Elmer) scintillation counter. After normalization to total and non-specific binding, the percent effect at each compound concentration was calculated. The plot of percent effect versus the log of compound concentration was analyzed electronically using a 4-parameter logistic fit based on the Levenberg-Marquardt algorithm to generate IC50 values.

[2] = biological target: T2, human A2B adenosine receptor (Homo sapiens, UniProt P29275); test: A2B binding affinity, radioligand filtration binding assay; conditions: value given with mark (A); membranes of HEK293 cells expressing human A2B
T2 construct: purchased Perkin Elmer ES-013-C; host or cells: HEK293 cells
T2 sequence (P29275 1-332): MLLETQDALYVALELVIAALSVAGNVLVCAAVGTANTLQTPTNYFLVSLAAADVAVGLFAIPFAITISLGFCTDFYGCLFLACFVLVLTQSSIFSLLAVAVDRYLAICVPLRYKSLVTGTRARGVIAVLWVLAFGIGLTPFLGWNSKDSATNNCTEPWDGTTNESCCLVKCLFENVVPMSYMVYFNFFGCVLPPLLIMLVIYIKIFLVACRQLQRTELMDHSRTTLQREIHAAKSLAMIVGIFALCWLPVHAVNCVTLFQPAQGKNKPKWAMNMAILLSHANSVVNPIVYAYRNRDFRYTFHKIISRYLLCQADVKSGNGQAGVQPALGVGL
Excerpt: as §1
Measurement of A2B Binding Affinity
The reported affinity of the compounds of the invention for the human A2B adenosine receptor was determined experimentally using a radioligand filtration binding assay. This assay measures the amount of binding of a tritiated proprietary A2B receptor antagonist, in the presence and absence of a compound of the invention, to membranes made from HEK293 cells recombinantly expressing the human A2B adenosine receptor (Perkin Elmer, Cat. No. ES-013-C). […] 148 µL (135 µg/mL) membranes and 2 µL test compounds were transferred to individual wells of a 96-well polypropylene assay plate and incubated for 15 to 30 min at room temperature with agitation. Tritiated radioligand was diluted to a concentration of 14 nM in assay buffer (phosphate buffered saline without Magnesium and Calcium, pH 7.4; GE Healthcare Life Sciences, Cat. No. SH30256.01) and then 50 µL of the solution were transferred to each well of the assay plate. To define total and non-specific binding, wells containing 1% DMSO and 20 µM N-ethylcarboxamidoadenosine (Tocris Bioscience, Cat. No. 1691) respectively, were also included. The wells of the assay plate were incubated at room temperature for 60 min with agitation, then filtered using a FilterMate Harvester® (Perkin Elmer) or similar equipment through a UniFilter-96® PEI coated plate (Perkin Elmer Cat. No. 6005274 or 6005277). Filtering was achieved by aspirating the contents of the assay plate for 5 sec, then washing and aspirating the contents three times with ice-cooled wash buffer (assay buffer supplemented with 0.0025% Brij58) and allowing the vacuum manifold to dry the plate for 30 sec. The filter plate was incubated for at least 1 h at 55° C. and allowed to dry. The bottom of the filter plate was then sealed with backing tape. 40 µL Ultima Gold™ (Perkin Elmer, Cat. No. 6013329) was added to each well of the filter plate and the top of the plate was sealed with TopSeal-A PLUS® clear plate seal (Perkin Elmer, Cat. No. 6050185). The plates were then incubated for at least 20 min, and then the amount of radioactivity remaining in each well was determined using a TopCount® (Perkin Elmer) scintillation counter. After normalization to total and non-specific binding, the percent effect at each compound concentration was calculated. The plot of percent effect versus the log of compound concentration was analyzed electronically using a 4-parameter logistic fit based on the Levenberg-Marquardt algorithm to generate IC50 values.

T1 sequence (P29274 whole entry): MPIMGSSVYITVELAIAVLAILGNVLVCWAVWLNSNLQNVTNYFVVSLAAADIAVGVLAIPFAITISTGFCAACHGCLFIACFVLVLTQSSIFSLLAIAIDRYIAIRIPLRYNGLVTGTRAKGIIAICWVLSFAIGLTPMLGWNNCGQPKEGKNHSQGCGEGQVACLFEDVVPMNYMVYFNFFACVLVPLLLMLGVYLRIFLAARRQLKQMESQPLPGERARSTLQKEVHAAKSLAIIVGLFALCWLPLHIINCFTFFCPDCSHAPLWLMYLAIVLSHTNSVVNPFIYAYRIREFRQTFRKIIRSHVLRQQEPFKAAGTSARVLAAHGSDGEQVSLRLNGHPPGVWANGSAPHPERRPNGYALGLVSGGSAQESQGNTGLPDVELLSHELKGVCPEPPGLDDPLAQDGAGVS

SMILES | IC50 [1] [nM] | IC50 [2] [nM]
COc1cc(F)cc2c1nc(N)n1nc(CNC(=O)c3c(F)cc(C(C)(C)O)cc3F)nc21 [Example 3.4, N-((5-amino-9-fluoro-7-methoxy-[1,2,4]triazolo[1,5-c]quinazolin-2-yl)methyl)-2,6-difluoro-4-(2-hydroxypropan-2-yl)benzamide] | 11.1 | 
COc1cccc2c1nc(N)n1nc(CNC(=O)c3ccc(S(N)(=O)=O)cc3)nc21 [Example 4.10, N-((5-amino-7-methoxy-[1,2,4]triazolo[1,5-c]quinazolin-2-y1)methyl)-4-sulfamoylbenzamide] | 636 | 
COc1cccc2c1nc(N)n1nc(CNC(=O)c3ncc(C(C)(C)O)cc3Br)nc21 [Example 4.11, N-((5-amino-7-methoxy-[1,2,4]triazolo[1,5-c]quinazolin-2-yl)methyl)-3-bromo-5-(2-hydroxypropan-2-yl)picolinamide] | 1.5 | 
COc1cccc2c1nc(N)n1nc(CN3CCO[C@@H](Cc4ccccc4)C3)nc21 [Example 8.1, (S)-2-((2-benzylmorpholino)methyl)-7-methoxy-[1,2,4]triazolo[1,5-c]quinazolin-5-amine] | 6 | 
COc1cccc2c1nc(N)n1nc(CN(C)Cc3ccc(S(N)(=O)=O)cc3)nc21 [Example 9.2, 4-((((5-amino-7-methoxy-[1,2,4]triazolo[1,5-c]quinazolin-2-yl)methyl)(methyl)amino)methyl)benzenesulfonamide] | 2.5 | 
COc1cccc2c1nc(N)n1nc(CN3CC(n4cccn4)C3)nc21 [Example 11.12, 2-((3-(1H-pyrazol-1-yl)azetidin-1-yl)methyl)-7-methoxy-[1,2,4]triazolo[1,5-c]quinazolin-5-amine] | 3.7 | 
COc1cccc2c1nc(N)n1nc(CN3CC(c4ccncc4)C3)nc21 [Example 11.14, 7-methoxy-2-((3-(pyridin-4-yl)azetidin-1-yl)methyl)-[1,2,4]triazolo[1,5-c]quinazolin-5-amine] | 9.1 | 
COc1cccc2c1nc(N)n1nc(CCNC34CC(C(C)(C)O)(C3)C4)nc21 [Example 22.2, 2-(3-((2-(5-amino-7-methoxy-[1,2,4]triazolo[1,5-c]quinazolin-2-yl)ethyl)amino)bicyclo[1.1.1]pentan-1-yl)propan-2-ol] | 12.3 | 
COc1cccc2c1nc(N)n1nc(CCNc3cnn(C)c3)nc21 [Example 23.2, 7-methoxy-2-(2-((1-methyl-1H-pyrazol-4-yl)amino)ethyl)-[1,2,4]triazolo[1,5-c]quinazolin-5-amine] | 4.2 | 
COc1cc2nc(N)n3nc(CCNc4cnn(CC(C)(C)O)c4)nc3c2cc1F [Example 24.2, 1-(4-((2-(5-amino-9-fluoro-8-methoxy-[1,2,4]triazolo[1,5-c]quinazolin-2-yl)ethyl)amino)-1H-pyrazol-1-yl)-2-methylpropan-2-ol] | 26.5 | 
COc1cc(F)cc2c1nc(N)n1nc(CCN3Cc4cnc(C(C)C)n4CC3=O)nc21 [Example 26.3, 7-(2-(5-amino-9-fluoro-7-methoxy-[1,2,4]triazolo[1,5-c]quinazolin-2-yl)ethyl)-3-isopropyl-7,8-dihydroimidazo[1,5-a]pyrazin-6(5H)-one] | 6.4 | 

Molecules with a lower IC50 [1], results first:

IC50 [1] [nM] | IC50 [2] [nM] | SMILES
0.5 | 21.2 | COc1cc(F)cc2c1nc(N)n1nc(CNCc3ccc(C(O)C(F)(F)F)cc3)nc21 (single isomer, unassigned) [Example 11.7A, (S or R)-1-(4-((((5-amino-9-fluoro-7-methoxy-[1,2,4]triazolo[1,5-c]quinazolin-2-yl)methyl)amino)methyl)phenyl)-2,2,2-trifluoroethan-1-ol]
0.5 | 14.7 | COc1cc(F)cc2c1nc(N)n1nc(CNCc3ccc(C(O)C(F)(F)F)cc3)nc21 (single isomer, unassigned) [Example 11.7B, (R or S)-1-(4-((((5-amino-9-fluoro-7-methoxy-[1,2,4]triazolo[1,5-c]quinazolin-2-yl)methyl)amino)methyl)phenyl)-2,2,2-trifluoroethan-1-ol]
0.3 |  | COc1cccc2c1nc(N)n1nc(CN(C)C(=O)c3ccc(C(C)(C)O)cc3)nc21 [Example 1.2, N-((5-amino-7-methoxy-[1,2,4]triazolo[1,5-c]quinazolin-2-yl)methyl)-4-(2-hydroxypropan-2-yl)-N-methylbenzamide]
0.6 |  | COc1cccc2c1nc(N)n1nc(CNC(=O)c3ccc(C(C)(C)O)cc3)nc21 [Example 2.1, N-((5-amino-7-methoxy-[1,2,4]triazolo[1,5-c]quinazolin-2-yl)methyl)-4-(2-hydroxypropan-2-yl)benzamide]
0.3 |  | COc1cccc2c1nc(N)n1nc(CNC(=O)c3ccc(C(O)(C(F)(F)F)C(F)(F)F)cc3)nc21 [Example 2.6, N-((5-amino-7-methoxy-[1,2,4]triazolo[1,5-c]quinazolin-2-yl)methyl)-4-(1,1,1,3,3,3-hexafluoro-2-hydroxypropan-2-yl)benzamide]
1.4 |  | COc1cccc2c1nc(N)n1nc(CNC(=O)c3ccc(C(C)(C)O)cn3)nc21 [Example 4.2, N-((5-amino-7-methoxy-[1,2,4]triazolo[1,5-c]quinazolin-2-yl)methyl)-5-(2-hydroxypropan-2-yl)picolinamide]
1.1 |  | COc1cc(F)cc2c1nc(N)n1nc(CNC(C)(C)c3ccc(C(C)(C)O)cc3)nc21 [Example 11.9, 2-(4-(2-(((5-amino-9-fluoro-7-methoxy-[1,2,4]triazolo[1,5-c]quinazolin-2-yl)methyl)amino)propan-2-yl)phenyl)propan-2-ol]
1.4 |  | COc1cccc2c1nc(N)n1nc(CNCc3ccc(S(N)(=O)=O)cc3)nc21 [Example 11.10, 4-((((5-amino-7-methoxy-[1,2,4]triazolo[1,5-c]quinazolin-2-yl)methyl)amino)methyl)benzenesulfonamide]
0.9 |  | COc1cccc2c1nc(N)n1nc(CCN(C)c3cnn(C)c3)nc21 [Example 24.4, 7-methoxy-2-(2-(methyl(1-methyl-1H-pyrazol-4-yl)amino)ethyl)-[1,2,4]triazolo[1,5-c]quinazolin-5-amine]

Reference: patent US20230322785A1, “ADENOSINE A2A AND A2B RECEPTOR DUAL ANTAGONISTS FOR IMMUNO-ONCOLOGY” (Merck Sharp & Dohme LLC, priority 2020, published 2023)
